Test results taken from patent US9115093B2, “Substituted bicyclic dihydropyrimidinones and their use as inhibitors of neutrophil elastase activity” (Boehringer Ingelheim International GmbH, priority 2013, dated 2015).

Target: T1, neutrophil elastase (Homo sapiens, UniProt P08246)
T1 sequence (P08246 30-247 limits assumed): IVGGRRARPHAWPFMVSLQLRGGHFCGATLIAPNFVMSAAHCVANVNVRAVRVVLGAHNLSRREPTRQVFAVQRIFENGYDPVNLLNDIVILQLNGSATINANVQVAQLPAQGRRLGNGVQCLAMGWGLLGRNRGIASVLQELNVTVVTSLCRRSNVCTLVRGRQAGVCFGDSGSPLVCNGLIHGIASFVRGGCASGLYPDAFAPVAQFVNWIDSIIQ
Experiment: Human Neutrophil Elastase Assay
Assay type: biochemical
Set-up: purchased Calbiochem 324681
Details: substrate MeOSuc-Ala-Ala-Pro-Val-AMC, pH 7.5, room temperature
Procedure: Human Neutrophil Elastase Assay
Materials: Human neutrophil elastase was purchased from Calbiochem (Cat.No.: 324681) and the elastase substrate MeOSuc-Ala-Ala-Pro-Val-AMC from Bachem (Cat.No.: I-1270). All other materials were of the highest grade commercially available.
The following buffers were used: Compound buffer: 100 mM Tris, 500 mM NaCl, adjusted to pH 7.5; Assay buffer: 100 mM Tris, 500 mM NaCl, adjusted to pH 7.5, containing 0.01% BSA.
Assay conditions: Test compounds were prediluted in DMSO and subsequently in compound buffer (5% DMSO final). 5 μL of these compound dilutions were mixed with 10 μl Neutrophil elastase (9 ng/ml in assay buffer) in a black 384 well OptiPlate (Perkin Elmer, Cat No.: 6007270) and incubated for 15 min at room temperature. Subsequently 10 μL substrate solution in assay buffer were added (250 nM final concentration) and the plates were incubated for 60 min at room temperature. After inactivation of the enzyme, fluorescence intensities were measured at 380 nm excitation and 460 nm emission wavelengths.
Each plate contains wells with a high value control (DMSO+enzyme+substrate) and wells with a low value control (DMSO+inactivated enzyme+substrate). IC50 values were estimated using a sigmoidal concentration response curve with variable slope. Means of low values were taken as 0%, means of high values as 100%.

Structure (SMILES)	IC50 [nM]
N#Cc1ccc(C2NC(=O)N(c3cccc(C(F)(F)F)c3)C3=C2C(=O)CC(c2cccs2)C3)cc1 (stereo not shown) [Example 9, 4-(2,5-Dioxo-7-(thiophen-2-yl)-1-(3-(trifluoromethyl)phenyl)-1,2,3,4,5,6,7,8-octahydroquinazolin-4-yl)benzonitrile]	41.7
N#Cc1ccc([C@H]2C3=C(CCCC3=O)N(c3cccc(C(F)(F)F)c3)C(=O)N2CC(=O)O)cc1 [Example 32B, (S)-2-(4-(4-Cyanophenyl)-2,5-dioxo-1-(3-(trifluoromethyl)phenyl)-1,2,5,6,7,8-hexahydroquinazolin-3(4H)-yl)acetic acid]	1410
CC1(C)CC(=O)C2=C(C1)N(c1cccc(C(F)(F)F)c1)C(=O)NC2c1ccc(C#N)cc1 (stereo not shown) [Example 3, 4-(7,7-Dimethyl-2,5-dioxo-1-(3-(trifluoromethyl)phenyl)-1,2,3,4,5,6,7,8-octahydroquinazolin-4-yl)benzonitrile]	68.3
CN1C(=O)N(c2cccc(C(F)F)c2)C2=C(C(=O)CCC2)C1c1ccc(C#N)cc1S(C)(=O)=O (stereo not shown) [Example 49, 4-(1-(3-(Difluoromethyl)phenyl)-3-methyl-2,5-dioxo-1,2,3,4,5,6,7,8-octahydroquinazolin-4-yl)-3-(methylsulfonyl)benzonitrile]	1.3
CS(=O)(=O)c1cc(C#N)ccc1[C@@H]1C2=C(CCCC2=O)N(c2cccc(C(F)(F)F)c2)C(=O)N1C(=O)NC1(C#N)CC1 [Example 75.8]	< 1
COC(=O)c1ccc(CN2C(=O)N(c3cccc(C(F)(F)F)c3)C3=C(C(=O)CCC3)C2c2ccc(C#N)cc2)o1 (stereo not shown) [Example 28, Methyl 5-((4-(4-Cyanophenyl)-2,5-dioxo-1-(3-(trifluoromethyl)phenyl)-1,2,5,6,7,8-hexahydroquinazolin-3(4H)-yl)methyl)furan-2-carboxylate]	29
CS(=O)(=O)N1C(=O)N(c2cccc(C(F)(F)F)c2)C2=C(C(=O)CCC2)C1c1ccc(C#N)cc1Cl (stereo not shown) [Example 67, 3-Chloro-4-(3-(methylsulfonyl)-2,5-dioxo-1-(3-(trifluoromethyl)phenyl)-1,2,3,4,5,6,7,8-octahydroquinazolin-4-yl)benzonitrile]	6.7
N#Cc1ccc(C2NC(=O)N(c3cccc(C(F)(F)F)c3)C3=C2C(=O)CC2(CCOCC2)C3)cc1 (stereo not shown) [Example 4, 4-(2′,5′-Dioxo-1′-(3-(trifluoromethyl)phenyl)-2,2′,3,3′,4′,5,5′,6,6′,8′-decahydro-1′H-spiro[pyran-4,7′-quinazoline]-4′-yl)benzonitrile]	110
CCNC(=O)N1C(=O)N(c2cccc(C(F)F)c2)C2=C(C(=O)CCC2)C1c1ccc(C#N)cc1S(C)(=O)=O (stereo not shown) [Example 51, 4-(4-Cyano-2-(methylsulfonyl)phenyl)-1-(3-(difluoromethyl)phenyl)-N-ethyl-2,5-dioxo-1,2,5,6,7,8-hexahydroquinazoline-3(4H)-carboxamide]	< 1

Next, values leading:

IC50 [nM]	Structure (SMILES)
8	N#Cc1ccc(C2C3=C(CCCC3=O)N(c3cccc(C(F)(F)F)c3)C(=O)N2CC(=O)N2CCN3CCCC3C2)cc1 (stereo not shown) [Example 36.56]
26.3	CN1CCCC1CNC(=O)CN1C(=O)N(c2cccc(C(F)(F)F)c2)C2=C(C(=O)CCC2)C1c1ccc(C#N)cc1 (stereo not shown) [Example 36.39]
13.8	N#Cc1ccc(C2NC(=O)N(c3cc(F)cc(C(F)(F)F)c3)C3=C2C(=O)CCC3)cc1 (stereo not shown) [Example 52.2]
5.6	N#Cc1ccc(C2C3=C(CCCC3=O)N(c3cccc(C(F)(F)F)c3)C(=O)N2CC(=O)N2CCc3cnccc3C2)cc1 (stereo not shown) [Example 36.64]
7	Cc1nnc(CNC(=O)CN2C(=O)N(c3cccc(C(F)(F)F)c3)C3=C(C(=O)CCC3)C2c2ccc(C#N)cc2)o1 (stereo not shown) [Example 36.35]
9.3	N#Cc1ccc(C2C3=C(CCCC3=O)N(c3cccc(C(F)(F)F)c3)C(=O)N2CC(=O)N2Cc3ccccc3C2)cc1 (stereo not shown) [Example 36.44]
1.2	CCNC(=O)N1C(=O)N(c2ccnc(C(F)(F)F)c2)C2=C(C(=O)CCC2)C1c1ccc(C#N)cc1 (stereo not shown) [Example 76.2]
